Like-named read-outs stand apart in the source and are kept apart here.
Key:
[1] = test system: Amycolatopsis sp. ATCC 39116; experiment: Utilization of aromatics as sole source of carbon (growth, OD600); format: cell-based; conditions: 2 mM substrate as sole source of carbon in mineral salt medium; OD600 after 40 hours
Description: For genetic engineering work, E. coli strains were grown in liquid Luria-Bertani (LB) medium or on solid LB medium, which additionally contained 20 g L^−1 agar (Becton Dickinson, Heidelberg, Germany). For conjugation, A. species ATCC 39116 was grown in liquid GYM medium, containing per liter: 4 g glucose, 4 g yeast extract (Becton Dickinson), and 10 g malt extract (Becton Dickinson). For sporulation and for cloning purposes, solid GYM medium, additionally containing 20 g L^−1 agar (Becton Dickinson), was used. For the pre-culture and the main culture in growth and production studies, a mineral medium (pH 7.2) was used, which contained per liter: 4.5 g Na2HPO4*7H2O, 3.0 g (NH4)2SO4, 1.0 g KH2PO4, 200 mg NaCl, 200 mg MgSO4.7H2O, 50 mg CaCl2.2H2O, 2 mg ZnSO4.7H2O, 1.2 mg MnCl2.4H2O, 0.4 mg CoCl2.6H2O, 0.2 mg NaMoO4.2H2O, 0.2 mg CuSO4.5H2O. […] For direct MA production from pre-treated lignin, appropriate amounts of the obtained hydrolysate (see below) were added. For plasmid maintenance, kanamycin (50 μg mL^−1) or apramycin (50 μg mL^−1) were added, respectively, when needed. In addition, 5-Bromo-4-chloro-1H-indol-3-yl β-D-gluco-pyranosiduronic acid (X-Gluc) was added to selection agar plates (40 μg mL^−1) for blue white screening.
(§1) Amycolatopsis was cultivated in baffled shake flasks, filled to 10% with liquid medium. Single colonies from agar plates, incubated for 24 h at 37° C., were used as inoculum for the first pre-culture. From there, cells were harvested during the exponential growth by centrifugation (5 min, 8800 xg, and 37° C.), and used afterwards as inoculum for the main culture. All shake flask cultivations were conducted in triplicate at 37° C. and 230 rpm on an orbital shaker (Multitron, Infors AG, Bottmingen, Switzerland).
The wildtype was cultivated in minimal medium on a range of aromatics, reflecting a spectrum of potential lignin-derivable raw materials.

[2] = test system: Corynebacterium glutamicum LIMA-1; experiment: Kinetics and stoichiometry of MA production from aromatics, batch shake flask, LIMA-1; format: cell-based
Description: (§2) C. glutamicum was grown in baffled shake flasks with 10% filling volume at 30° C. and 230 rpm on an orbital shaker (Multitron, Infors AG, Bottmingen, Switzerland, 5 cm shaking diameter). The cultivation procedure involved one pre-culture in complex medium (37 g L^−1 BHI) followed by another pre-cultivation and then by the main cultivation, both in minimal medium (Kind et al., 2013. Metab. Eng. 15, 184-95.), which contained the following salts and vitamins per liter: NaCl, 0.055 g CaCl2.H2O, 0.2 g MgSO4.7H2O, 15 g (NH4)2SO4, 24.98 g K2HPO4, 7.7 g KH2PO4, 20 mg FeSO4.7 H2O, 0.5 mg biotin, 1 mg thiamine.HCl, 30 mg 3,4-dihydroxybenzoic acid and 10 mL of a 100× trace element solution (Vallino and Stephanopoulos., 1993. Biotechnol. Bioeng. 41, 633-646). […] The different medium ingredients were combined at room temperature freshly before use. The pH was kept constant at 7.0±0.2 by manual addition of 2 M NaOH. All cultures were conducted as biological triplicate.
(§3) A diode array detector was used for detection of MA (260 nm) and the aromatics (210 nm). The quantification of glucose was carried out by isocratic HPLC (Agilent 1260 Infinity Series, Waldbronn, Germany). The separation was conducted on an Aminex HPX-87H column (300×7.8 mm; Bio-Rad, Munich, Germany) at 55° C. As mobile phase, 3.5 mM H2SO4 was used at a flow rate of 0.8 mL min^−1. The refraction index was used for detection. The concentration of cell dry mass (CDM) was calculated from the measured optical density (OD660) using a correlation factor of CDM (g/L)=0.32×OD660 (Rohles et al., 2016. Microb. Cell Fact. 15, 154). The exact monitoring of the cell concentration during the intracellular metabolite sampling and the above correlation allowed to relate the obtained metabolite levels to the CDM (μmol gCDM^−1). The correlation between the cytoplasmic volume and the CDM (1.95 mL gCDM^−1) was used to express intracellular concentrations in mM (Gutmann et al., 1992. Biochim. Biophys. Acta. 1112, 115-23).

[3] = test system: catechol dioxygenase (CatA); experiment: Substrate specificity of catechol dioxygenase in cell extract; format: biochemical, Amycolatopsis species ATCC 39116; conditions: for Specific activity: 20 μM substrate, MA formation at 260 nm
Description: The cells were harvested by centrifugation, washed in 60 mM Tris-HCl buffer (pH 8.2), and disrupted in pre-packed lysis tubes (0.1 mm silica spheres, Lysing Matrix B, MP Biomedicals, Heidelberg, Germany), using three intervals of disruption in a ribolyzer (Precellys-24, Peq Lab, Hannover, Germany, 3×30 s, 6 m s^−1) with […] on ice in between. Removal of cell debris and protein quantification was performed as previously described (Becker et al., 2009. Appl. Environ. Microbiol. 75, 7866-9). […] The reaction was monitored on-line via the change in absorbance at 260 nm, reflecting the accumulation of MA (c=16,800 M^−1 cm^−1) (Jimenez et al., 2014. Microbiol. 16, 1767-78). […] Controls without cell extract and without substrate were included.
Subsequently, GC-MS analysis of pure MA and of lyophilized culture supernatant from a culture on o-cresol was conducted. […] It was now interesting to see, how this product was actually derived.

[4] = target: catechol-1,2-dioxygenase (CatA) (Corynebacterium glutamicum, UniProt Q8NN11); experiment: Catechol-1,2-dioxygenase (CatA) activity and kinetics in crude cell extracts; format: biochemical
catechol-1,2-dioxygenase (CatA), sequence (Q8NN11 entry or part of it): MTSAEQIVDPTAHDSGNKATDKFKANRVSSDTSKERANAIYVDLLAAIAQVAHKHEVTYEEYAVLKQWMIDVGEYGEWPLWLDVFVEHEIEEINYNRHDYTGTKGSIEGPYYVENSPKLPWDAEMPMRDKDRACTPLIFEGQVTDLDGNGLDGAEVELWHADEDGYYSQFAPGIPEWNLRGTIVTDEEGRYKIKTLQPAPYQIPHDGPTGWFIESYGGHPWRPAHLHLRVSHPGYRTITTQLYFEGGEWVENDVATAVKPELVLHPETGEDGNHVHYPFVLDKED
Description: Crude cell extracts were prepared from exponentially growing cells by mechanical cell disruption. Cell harvest was carried out as previously described (Buschke et al., 2011. Biotechnol. J. 6, 306-17). Aliquots of 1 mL cell suspension were transferred into FastPrep-24 vials (MP Biomedicals, Illkirch-Graffenstaden, France), containing silica beads (Ø 0.1 mm). Cell disruption was carried out in 2×30 sec cycles at 5,000 rpm (Precellys-24, Peqlab, Hannover, Germany), including a 5 minute cooling pause on ice. The extract was also chilled on ice after the disruption. Removal of cell debris and protein quantification was performed as previously described (Becker et al., 2009. Appl. Environ. Microbiol. 75, 7866-9). […] The formation of MA (c=[…]) was monitored via the change in absorbance at 260 nm (Guzik et al., 2013. Int. J. Gen. Mol. Microbiol. 103, 1297-1307). […] The kinetic parameters of the enzyme were obtained by fitting the experimental data to the Michaelis-Menten type kinetic equation (OriginLab, Northhampton, Mass., USA). The protein content in the crude cell extract was quantified, using bovine serum albumin as standard (Pierce BCA Protein Assay Kit, Thermo Fisher Scientific).

[5] = test system: Corynebacterium glutamicum LIMA-1; format: cell-based; conditions: glucose as growth substrate; 24 hours
Description: C. glutamicum was grown at 1 mL-scale in a micro bioreactor (BioLector I, m2plabs, Baesweiler, Germany), using 48-well flower plates. […] All cultures were conducted as biological triplicate.
A set of growth experiments was conducted to study potential inhibitory effects of the compounds involved on growth of the producing strains.

[6] = test system: Corynebacterium glutamicum LIMA-2; experiment: Kinetics and stoichiometry of MA production from catechol, batch shake flask, LIMA-2; format: cell-based; conditions: only 10 mM catechol
Description: as §2, §3

[7] = test system: Amycolatopsis sp. ATCC 39116; experiment: Growth of wildtype on guaiacol as sole source of carbon; format: cell-based
Description: as §1
The cell concentration was determined in duplicate as optical density at 600 nm (OD600). The cell dry mass (CDM) was determined gravimetrically in triplicate. In short, 20 mL culture broth was filtered (Whatman cellulose filter, Grade 3, GE-Healthcare Life Sciences, Little Chalfont, UK), washed three times, and dried to constant weight (HB43-S, Mettler-Toledo, Columbus, Ohio, UA). The correlation factor was CDM [g L^−1]=0.45×OD600.
The capability to use guaiacol was found most relevant, given the huge importance of the aromatic as the dominant building block of softwood lignin, and was therefore studied now in more detail. The wildtype was found robust and tolerated elevated levels of guaiacol. Concentrations up 25 mM were utilized (FIG. 25). […] On a quantitative basis, MA reached a level of 0.3 mM, which represented about 5% of the initially added guaiacol. […]

[8] = LIMA-1, initial 20 mM benzoate, 10 mM catechol, 5 mM phenol, glucose added
[9] = column LIMA-1, 10 mM catechol plus 2 mM benzoate as inducer

With `Oc1ccccc1` [Phenol] the Growth [1] was “++ (1 > OD > 0.5)”, the “YMA/Aro, MA yield” value [2] was 0.95 ± 0.09 mol mol^−1 and the “YX/Glc, biomass yield” value [2] was 0.48 ± 0.01 g/g. The “qGlc, specific glucose uptake rate” value [2] was 0.6 ± 0.0 mmol/g/h and the “qMA, specific MA production rate” value [2] was 0.1 ± 0.0 mmol/g/h.

For `Cc1ccc(O)c(O)c1` [4-Methyl catechol], the “accepted as substrate by the enzyme” value [3] was “accepted” and the Specific activity [3] was 380 ± 5 mU mg^−1.

With `O=C(O)c1ccccc1` [Benzoic acid] the “CatA activity of cells cultivated on the aromatic” value ([4]; LIMA-1 crude extract) was 490 mU mg^−1, the “fold higher CatA activity versus culture only on glucose” value ([4]; LIMA-1 crude extract) was 16 fold and the Growth [1] was “+++ (OD > 1)”. The “YMA/Aro, MA yield” value [2] was 1.00 ± 0.02 mol mol^−1, the “YX/Glc, biomass yield” value [2] was 0.46 ± 0.01 g/g and the “qGlc, specific glucose uptake rate” value [2] was 0.5 ± 0.0 mmol/g/h. The “qMA, specific MA production rate” value [2] was 3.3 ± 0.1 mmol/g/h and the “level up to which the mutant grew (highest concentrations tested)” value [5] was at most 80 mM.

In the case of `Cc1cccc(O)c1O` [3-Methyl catechol], the Specific activity [3] is reported as 470 ± 9 mU mg^−1 and the “activity relative to that found for catechol” value ([3]; catechol replaced by equimolar substrate) is reported as “about 70%”.

`O=C(O)/C=C/c1ccc(O)cc1` [p-Coumaric acid] was tested, and the Growth [1] was “+++ (OD > 1)”.

`Oc1ccccc1O` [Catechol] was tested, and the Specific activity [3] was 640 ± 19 mU mg^−1, the Specific activity ([3]; listed as catechol) was 640 mU mg^−1 and the Km ([4]; read-out: KM-value for catechol, crude extract of benzoate-grown cells, Michaelis-Menten fit) was 2.3 µM. The “YMA/Aro, MA yield” value [6] was 1.00 ± 0.01 mol mol^−1, the “YX/Glc, biomass yield” value [6] was 0.40 ± 0.02 g/g and the “qGlc, specific glucose uptake rate” value [6] was 0.4 ± 0.0 mmol/g/h. The “qMA, specific MA production rate” value [6] was 3.5 ± 0.1 mmol/g/h, the Growth [1] was “++ (1 > OD > 0.5)” and the “YMA/Aro, MA yield” value [2, 8] was 0.99 ± 0.02 mol mol^−1. The “YX/Glc, biomass yield” value [2, 8] was 0.38 ± 0.01 g/g, the “qGlc, specific glucose uptake rate” value [2, 8] was 0.3 ± 0.0 mmol/g/h and the “qMA, specific MA production rate” value [2, 8] was 0.2 ± 0.0 mmol/g/h. The “YMA/Aro, MA yield” value ([2]; LIMA-1, initial 20 mM benzoate, 10 mM catechol, 5 mM phenol, glucose added, listed as catechol) was 1.00±0.01 mol mol^−1, the “qGlc, specific glucose uptake rate” value [2, 9] was 0.7 ± 0.0 mmol/g/h and the “qMA, specific MA production rate” value [2, 9] was 5.2 ± 0.4 mmol/g/h.

In the case of `COc1ccccc1O` [Guaiacol], the specific growth rate ([7]; guaiacol as sole carbon source) is reported as 0.30 h⁻¹, the “concentrations utilized (tolerated) up to” value ([7]; guaiacol as sole source of carbon, 24 hours) is reported as at most 25 mM and the Growth [1] is reported as “++ (1 > OD > 0.5)”.

For `O=C(O)/C=C\C=C/C(=O)O` [Cis,cis-muconic acid, (2Z,4Z)-2,4-Hexadienedioate], the Growth [1] was “+++ (OD > 1)”.

With `Cc1ccccc1` [Toluene] the Growth [1] was “+ (0.5 > OD > 0.25)”.

— patent US20200017771A1, “MEANS AND METHODS FOR LIGNIN PYROLYSIS” (UNIVERSITAET DES SAARLANDES, priority 2017, published 2020)
